# Data from patent US5508311A, “Aliphatic propargylamines as selective MAO-B inhibitors and as neuroprotective agents” (University of Saskatchewan, priority 1993, dated 1996).
# Assays:
# MAO-A [1] = target: T1, MAO-A (Mus musculus, UniProt Q64133); assay: in vivo; conditions: ip, 2 h, read-out: 5-HT ID50
# T1 construct: MAO activities in the mouse brain after; from tissue
# T1 sequence (Q64133 1-526): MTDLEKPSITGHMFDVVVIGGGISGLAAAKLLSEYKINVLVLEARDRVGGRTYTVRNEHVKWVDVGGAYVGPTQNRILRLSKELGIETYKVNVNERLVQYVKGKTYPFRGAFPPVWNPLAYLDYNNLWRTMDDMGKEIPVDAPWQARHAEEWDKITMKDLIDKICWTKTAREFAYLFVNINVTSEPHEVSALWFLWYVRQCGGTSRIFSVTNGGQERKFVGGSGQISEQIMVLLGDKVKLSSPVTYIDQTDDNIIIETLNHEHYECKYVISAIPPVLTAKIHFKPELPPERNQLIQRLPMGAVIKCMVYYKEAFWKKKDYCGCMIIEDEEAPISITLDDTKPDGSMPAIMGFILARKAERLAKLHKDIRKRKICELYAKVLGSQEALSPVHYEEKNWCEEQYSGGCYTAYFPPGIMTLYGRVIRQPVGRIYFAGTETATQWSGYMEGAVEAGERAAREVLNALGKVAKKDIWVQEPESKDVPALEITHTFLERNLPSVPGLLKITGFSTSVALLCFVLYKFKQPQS
# Protocol: (§1) Albino Swiss mice were used in this study. The animals were injected intraperitoneally with different doses of the aliphatic propargylamines in 100 μL saline.
# (§2) 0.5, 1, 2, 5, 10, 20, 50, 100 mg/Kg. Striata were dissected from the brai
# (§3) two hours after i.p. administration of the drugs. MAOA and MAOB activitie
# (§4) were determined immediately. The values were estimated from doseresponse
# MAO-A [2] = target: T2, MAO-A (Rattus norvegicus, UniProt P21396); assay: biochemical; assay type: biochemical; conditions: substrate 5-HT (5 × 10^-4 M); rat liver MAO, in vitro; average of at least 3 independent experiments
# T2 sequence (P21396 1-526): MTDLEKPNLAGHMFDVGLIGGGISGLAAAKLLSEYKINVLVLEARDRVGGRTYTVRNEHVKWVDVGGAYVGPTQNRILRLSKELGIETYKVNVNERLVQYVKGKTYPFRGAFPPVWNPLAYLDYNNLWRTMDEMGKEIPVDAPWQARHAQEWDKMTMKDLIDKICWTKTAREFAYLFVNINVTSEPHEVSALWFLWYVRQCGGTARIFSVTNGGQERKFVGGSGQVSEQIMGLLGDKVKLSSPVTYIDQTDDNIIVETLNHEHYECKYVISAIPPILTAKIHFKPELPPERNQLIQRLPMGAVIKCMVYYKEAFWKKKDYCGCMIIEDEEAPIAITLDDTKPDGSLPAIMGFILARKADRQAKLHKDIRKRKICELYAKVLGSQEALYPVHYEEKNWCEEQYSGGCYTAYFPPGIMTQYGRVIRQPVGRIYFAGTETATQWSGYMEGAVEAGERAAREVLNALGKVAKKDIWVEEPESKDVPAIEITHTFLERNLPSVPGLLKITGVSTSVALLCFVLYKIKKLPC
# Protocol: The aliphatic propargylamine inhibitors (from 1×10^-10 M to 1×10^-4 M) were preincubated with the MAO for 20 min. at ambient room temperature and then the residual enzyme activities were determined by addition of the substrates, followed by further incubation at 37° C. for 30 min. The enzymatic reactions were terminated by the addition of citric acid and the aldehyde products were extracted with toluene: ethyl acetate (1:1, v/v) and the radio-activities assessed in a scintillation counter.
# MAO-B [3] = target: T3, MAO-B (Mus musculus, UniProt Q8BW75); assay: in vivo; assay type: in vivo; conditions: mouse, ip
# T3 construct: MAO activities in the mouse brain after; from tissue
# T3 sequence (Q8BW75 1-520): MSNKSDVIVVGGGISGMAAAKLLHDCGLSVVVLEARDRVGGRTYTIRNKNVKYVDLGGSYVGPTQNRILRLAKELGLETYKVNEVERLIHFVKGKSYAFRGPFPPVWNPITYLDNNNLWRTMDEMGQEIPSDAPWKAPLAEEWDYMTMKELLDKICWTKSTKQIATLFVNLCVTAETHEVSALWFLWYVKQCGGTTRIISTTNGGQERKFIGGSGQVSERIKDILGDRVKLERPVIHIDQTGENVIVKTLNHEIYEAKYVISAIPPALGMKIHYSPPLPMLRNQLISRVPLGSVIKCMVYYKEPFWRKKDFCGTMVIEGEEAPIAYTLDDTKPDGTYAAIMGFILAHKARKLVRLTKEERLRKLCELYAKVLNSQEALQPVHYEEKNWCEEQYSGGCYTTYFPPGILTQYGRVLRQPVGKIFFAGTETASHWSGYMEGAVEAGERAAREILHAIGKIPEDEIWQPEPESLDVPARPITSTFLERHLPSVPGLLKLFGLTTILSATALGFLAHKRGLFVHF
# Protocol: as §1, §2, §3, §4
# MAO-B [4] = target: T3, MAO-B; assay: MAO-B activity in the mouse brain after oral administration (substrate PE); assay type: in vivo; conditions: 2 hours
# Protocol: Table 3 indicates the MAO activities in the mouse brain following oral administration of the aliphatic propargylamines.
# of each compound. Striata were dissected from the brain two hours after
# the administration of the drugs. MAOA and MAOB activities were determined
# Striata were dissected from the brain two
# hours after oral administration of the drugs. MAOB activities were then
# determined immediately. The values were estimated from doseresponse
# dopamine neurons = assay: Protection of dopamine neurons against MPTP-induced neurotoxicity in the mice brain; assay type: in vivo, mouse
# Text: Three days later, dopamine levels and dopamine uptake site densities (GBR bindings) were estimated.
# [5] = mouse, in vivo
# Text: The acute toxicity of these compounds is quite low. […]. The aliphatic side-chains of these aliphatic propargyl compounds are similar to those that exist in endogenous lipids and fatty acids and such aliphatic chains are readily oxidized in vivo. […]
compound,measurement,setting,value
"C#CCN(C)C(C)CCC.Cl.O=C(O)C(=O)O (stereo not shown) [Example M-2-PP, N-(2-Pentyl)-N-methylpropargylamine hydrochloride and oxalate]",ED50,MAO-A [1],25 mg/kg
same,IC50,MAO-A [2],10 µM
same,MAO-B ID50 (mg/Kg) / IC50 (1 × 10^-6 M),MAO-B [3]; in vivo,2.5
same,inhibition of brain MAO-B activity in vivo (in words),MAO-B [3]; in vivo,more potent than the longer chain analogs at inhibiting brain MAO-B activity
same,Ratio MAO-A/MAO-B,"MAO-B [3]; in vivo, 120 min",50
same,ED50,"MAO-B [3]; 2 h, read-out: PE ID50",0.5 mg/kg
same,ED50,"MAO-B [4]; mouse, oral, average of 5 animals per dose, estimated from dose response curves, read-out: Inhibition of MAO-B activity, dose response (ID50)",1 mg/kg
same,Relative activity PE,"MAO-B [4]; oral 10 mg/Kg, PE (1.9 × 10^-5 M), mean ± standard error, saline = 100",31 ± 4%
same,Dopamine,dopamine neurons; 0.5 mg/Kg + MPTP,8.3 μg/gm
same,Dopamine binding site,dopamine neurons; 0.5 mg/Kg + MPTP,312 pmol/mg
same,Dopamine,dopamine neurons; 2.5 mg/Kg + MPTP,8.9 μg/gm
same,Dopamine binding site,dopamine neurons; 2.5 mg/Kg + MPTP,306 pmol/mg
same,fatality after oral administration,[5],no fatality
